Experimental data taken from patent US20110306801A1, “EXTRACTION AND SEPARATION PROCESSES FOR RECOVERY OF ORGANIC SOLUTES FROM FEED SOURCES AND APPARATUSES FOR PERFORMING SAME” (Trans Ionics Corporation, priority 2009, published 2011).
Like-named read-outs stand apart in the source and are kept apart here.

Assays:
[1] = Extraction of ethanol from water with cetyl alcohol, equilibrium data and distribution coefficient; assay type: physicochemical; conditions: aqueous ethanol feed, 75° C.
Protocol: (§1) DC=(Wo/Ws)ext/(Wo/Ww)raff (1)
(§2) The slope of this line is the distribution coefficient.
Cetyl Alcohol as an Extraction Solvent For Ethanol. Cetyl alcohol was used as a solvent for ethanol extraction. Because cetyl alcohol melts between 47° C. and 50° C. and therefore is a solid at both room temperature (25° C.) and typical fermentation temperatures (40° C.), it has been overlooked as an extraction solvent. Cetyl alcohol was tested at 75° C. at a solvent:feed ratio of 5:1.

[2] = Batch separation of ethanol from xylenes using 5 Å zeolite molecular sieves; assay type: physicochemical; conditions: 10.0 grams feed (8.00 wt % ethanol, 0.07 wt % water, balance mixed xylenes) with 5.0 gm zeolite, 40° C.
[3] = ethanol, ABE feed, cetyl alcohol/mixed xylenes 50/50 wt %
[4] = approximately 6.0 grams 100-120 mesh 5 Å sieves, 10.1 mm ID column, 20.0 ml feed with 7.47 wt % ethanol in xylenes
Protocol: Commercially available Linde 5 Å molecular sieves containing binder were ground and sieved to 100-120 mesh using standard screens. After activation at 400° C., the sieves were cooled to 150° C. and poured directly into mixed xylenes.
The stopcock was opened and samples of liquid were taken every 10 minutes for analysis by gas chromatography. Data were normalized to produce a dimensionless concentration by dividing each of the outlet ethanol concentrations by that of the feed stream.

[5] = cetyl alcohol/oleic acid 50/50 wt %, 5:1, 75° C.
Protocol: One measure of the effectiveness of a solvent for extracting solutes is termed the distribution coefficient, which is calculated as follows in Formula (1):
as §1, §2
Mixtures of Cetyl Alcohol and Other Solvents For Extraction of Ethanol. Mixtures of cetyl alcohol with other solvents were used in order to produce a resulting extraction solvent having a lower melting point than pure cetyl alcohol. […] This solvent mixture was tested for ethanol extraction at a solvent:feed ratio of 5:1 at 75° C.

## CCCCCCCCCCCCCCCCO [Cetyl alcohol]
[1]
  emulsion formation as extraction solvent: no indication of the formation of emulsions

## CCO [ethanol]
[2]
  ethanol content leveled out after contact with 5 Å zeolite pellets: 1.07 wt %
[3]; 5:1, 40° C., feed Wo/Ww 0.002
  Extract (Wo/Ws): 0.00002 Wo/Ws
  Raffinate (Wo/Ww): 0.00009 Wo/Ww
[3]; 5:1, 40° C., feed Wo/Ww 0.03
  Extract (Wo/Ws): 0.0005 Wo/Ws
  Raffinate (Wo/Ww): 0.0025 Wo/Ww
[3]; 5:1, 40° C., feed Wo/Ww 0.06
  Extract (Wo/Ws): 0.0010 Wo/Ws
  Raffinate (Wo/Ww): 0.0052 Wo/Ww
[3]; 5:1, 40° C., feed Wo/Ww 0.12
  Extract (Wo/Ws): 0.0021 Wo/Ws
  Raffinate (Wo/Ww): 0.0102 Wo/Ww
[3]; 5:1, 40° C., feed Wo/Ww 0.15
  Raffinate (Wo/Ww): 0.0126 Wo/Ww
[3]; 5:1, 40° C., feed Wo/Ww 0.19
  Extract (Wo/Ws): 0.0032 Wo/Ws
  Raffinate (Wo/Ww): 0.0152 Wo/Ww
[3]; 5:1, 75° C., feed Wo/Ww 0.002
  Extract (Wo/Ws): 0.00003 Wo/Ws
  Raffinate (Wo/Ww): 0.00007 Wo/Ww
[3]; 5:1, 75° C., feed Wo/Ww 0.03
  Extract (Wo/Ws): 0.0009 Wo/Ws
  Raffinate (Wo/Ww): 0.0021 Wo/Ww
[3]; 5:1, 75° C., feed Wo/Ww 0.06
  Extract (Wo/Ws): 0.0012 Wo/Ws
  Raffinate (Wo/Ww): 0.0043 Wo/Ww
[3]; 5:1, 75° C., feed Wo/Ww 0.12
  Extract (Wo/Ws): 0.0025 Wo/Ws
  Raffinate (Wo/Ww): 0.0084 Wo/Ww
[3]; 5:1, 75° C., feed Wo/Ww 0.15
  Extract (Wo/Ws): 0.0031 Wo/Ws
  Raffinate (Wo/Ww): 0.0105 Wo/Ww
[3]; 5:1, 75° C., feed Wo/Ww 0.19
  Raffinate (Wo/Ww): 0.0125 Wo/Ww
[4]
  volume of effluent exited the column before ethanol appeared in the product: 20 mL
[5]; feed Wo/Ww 0.2000
  Extract (Wo/Ws): 0.0316 Wo/Ws
[5]; feed Wo/Ww 0.5000
  Extract (Wo/Ws): 0.0848 Wo/Ws
